From the supplement of paper PMC12370961

How the values were obtained:
Assay in all cases: differential drug sensitivity score (dDSS) relative to sarcoma reference cohort mean DSS (DSS units (0-100 scale difference)); higher = more selective sensitivity than reference sarcomas
Conditions in all cases: exposure time: 72 h; concentration range: 10-10000 nM
CDS-ZH001-2 = tested on: CDS-ZH001-2 (patient-derived CIC-DUX4 sarcoma tumoroid)
Protocol: (§1)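 Drug response profiling of patient-derived Ewing sarcoma and CIC::DUX4 sarcoma tumoroid models (or cells tested directly after isolation from the tumor, 'direct'). The DSS is the normalised AUC (0-100); dDSS is the sample DSS minus the mean DSS of a 34-sarcoma reference cohort profiled in the same lab.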

CDS-ZH001 = tested on: CDS-ZH001 (patient-derived CIC-DUX4 sarcoma tumoroid)
Protocol: as §1

CDS-ZH002 direct = tested on: CDS-ZH002 direct (CIC-DUX4 sarcoma cells right after isolation)
Protocol: as §1

CDS-ZH002 = tested on: CDS-ZH002 (patient-derived CIC-DUX4 sarcoma tumoroid)
Protocol: as §1

CDS-ZH003 = tested on: CDS-ZH003 (patient-derived CIC-DUX4 sarcoma tumoroid)
Protocol: as §1

ES-ZH001 = tested on: ES-ZH001 (patient-derived Ewing sarcoma tumoroid)
Protocol: as §1

ES-ZH002 = tested on: ES-ZH002 (patient-derived Ewing sarcoma tumoroid)
Protocol: as §1

ES-ZH004 = tested on: ES-ZH004 (patient-derived Ewing sarcoma tumoroid)
Protocol: as §1

ES-ZH007 = tested on: ES-ZH007 (patient-derived Ewing sarcoma tumoroid)
Protocol: as §1

ES-ZH008 = tested on: ES-ZH008 (patient-derived Ewing sarcoma tumoroid)
Protocol: as §1

ES-ZH009 = tested on: ES-ZH009 (patient-derived Ewing sarcoma tumoroid)
Protocol: as §1

ES-ZH016 direct = tested on: ES-ZH016 direct (Ewing sarcoma cells right after isolation)
Protocol: as §1

ES-ZH016 = tested on: ES-ZH016 (patient-derived Ewing sarcoma tumoroid)
Protocol: as §1

SMILES	differential drug sensitivity score (CDS-ZH001-2)	differential drug sensitivity score (CDS-ZH001)	differential drug sensitivity score (CDS-ZH002 direct)	differential drug sensitivity score (CDS-ZH002)	differential drug sensitivity score (CDS-ZH003)	differential drug sensitivity score (ES-ZH001)	differential drug sensitivity score (ES-ZH002)	differential drug sensitivity score (ES-ZH004)	differential drug sensitivity score (ES-ZH007)	differential drug sensitivity score (ES-ZH008)	differential drug sensitivity score (ES-ZH009)	differential drug sensitivity score (ES-ZH016 direct)	differential drug sensitivity score (ES-ZH016)
Nc1ccn([C@@H]2O[C@H](CO)[C@@H](O)C2(F)F)c(=O)n1 [Gemcitabine]	1.8	4.5	-7	-4.9	-7	23.1	24.8	20.1	24.5	18.7	19.6	9.7	22.4
Cc1sc2c(c1C)C(c1ccc(Cl)cc1)=N[C@@H](CC(=O)Nc1ccc(O)cc1)c1nnc(C)n1-2 [Birabresib]	1	-1.1	1.5	-11.1	-0.8	-5.6	0.3	-6.7	-4.1	5.9	11.9	11.1	-7.9
CCc1c2c(nc3ccc(OC(=O)N4CCC(N5CCCCC5)CC4)cc13)-c1cc3c(c(=O)n1C2)COC(=O)[C@]3(O)CC [Irinotecan]	-0.6	1	-5.3	-4	-9.5	19.6	23.1	23.1	14.3	31.1	9.1	15.8	17.9
C[C@H](Nc1ncnc2nc[nH]c12)c1cc2cccc(Cl)c2c(=O)n1-c1ccccc1 [Duvelisib]	4.4	4.2	0.6	1.2	-1.2	-5.6	1.9	-4.4	-2.7	-1.1	9.1	4.2	3.4
Cc1ccc(F)c(NC(=O)Nc2ccc(-c3cccc4[nH]nc(N)c34)cc2)c1 [Linifanib]	-0.9	0.8	1.4	-1.4	0.8	3.8	2.4	-1.3	-1.4	-0.4	2.3	0.7	0.1
N[C@@H](Cc1ccc(N(CCCl)CCCl)cc1)C(=O)O [Melphalan]	-1.7	-1.7	-1.7	-1.7	-1.7	-1	7	4.3	-1.7	2.7	-1.3	4	3.5
Cn1c(Nc2ccc(C(F)(F)F)cc2)nc2cc(Oc3ccnc(-c4ncc(C(F)(F)F)[nH]4)c3)ccc21 [RAF-265]	0.9	-2.9	3	-6.1	-2.8	5.1	6.1	-2.3	-0.7	5.2	9.3	6.4	1
CCn1c(-c2nonc2N)nc2c(C#CC(C)(C)O)ncc(OC[C@H]3CCCNC3)c21	-9.5	5.1	-3.1	-9.5	-9.5	0.5	13	10.8	4.4	15.5	5.5	-1	1.1
CCCN(CCC)C(=O)C1=Cc2ccc(-c3ccc(C(=O)N4CCCC4)cc3)cc2N=C(N)C1 [Motolimod]	4.9	-2	2.1	-1.9	-3.1	1.9	1.9	-3.1	-2.9	0.1	-1.5	0.4	0.2
CN1CCC(CNc2ccc3ncc(-c4cccc(OC(F)(F)F)c4)n3n2)CC1 [SGI1776]	3.7	3.5	-0.4	0.1	4.4	0.3	6.6	1.6	0.5	2.1	0.3	-0.3	0.8
CC(C)C[C@H](NC(=O)[C@@H](NC(=O)c1cccc(-c2ccccc2)n1)[C@@H](C)O)B(O)O [Delanzomib]	4.9	5.4	6.7	1.2	1.1	7.9	9.6	2.1	5.7	5.7	5.8	2.4	0
Nc1ncn([C@H]2C[C@H](O)[C@@H](CO)O2)c(=O)n1 [Decitabine]	1.7	0.1	2.2	-1.8	-7	5.8	21.4	6.4	5.1	5.7	1.3	13.3	4.4
Nc1nc(F)nc2c1ncn2[C@@H]1O[C@H](CO)[C@@H](O)[C@@H]1O [Fludarabine]	3.9	-3.2	2.5	-0.8	-2.8	4.6	8.7	5.3	3.9	-1.1	-3.2	11.5	1.4
CCN(CCCOc1ccc2c(Nc3cc(CC(=O)Nc4cccc(F)c4)[nH]n3)ncnc2c1)CCOP(=O)(O)O [Barasertib]	4.6	-8.9	-3	-3	-8.9	32.8	26.1	10.1	4.7	17.5	27.6	23.8	22.6
Oc1ccc(/C=C/c2cc(O)cc(O)c2)cc1 [Resveratrol]	0	1.4	0.1	-2	-4.6	11.6	16.5	10.1	0.9	13.8	7	4.7	4.4
O=NN(CCCl)C(=O)NCCCl [Carmustine]	-0.5	-1.3	-1.2	-1.2	-1.3	2.6	7.3	1.6	-1.3	1.4	-1.3	2.1	1.1
COC(=O)C[C@](O)(CCCC(C)(C)O)C(=O)O[C@@H]1C(OC)=C[C@]23CCCN2CCc2cc4c(cc2[C@H]13)OCO4 [Homoharringtonine]	10.7	10.1	10	6.3	1	3.5	9.7	1.9	10	13.3	6	2.7	3.1
CN(NC(=O)CC(=O)NN(C)C(=S)c1ccccc1)C(=S)c1ccccc1 [Elesclomol]	2	-6	-6	-4	-5.7	0.9	18.6	40.9	28.6	6.3	-0.7	7.7	-6
NC(=O)/C(=C/n1cnc(-c2cc(C(F)(F)F)cc(C(F)(F)F)c2)n1)c1cncnc1 [Eltanexor]	8	0.5	-5.9	-5.7	-13.9	-3.8	5	14	0.4	16.8	-14.4	22	-5.7
Nc1ccccc1NC(=O)c1ccc(CNC(=O)OCc2cccnc2)cc1 [Entinostat]	0.5	-4.9	1.3	-3	-2.1	0.2	4.9	7.1	5.5	5.6	2.1	5.6	-0.2
C[C@@H]1CCN(C(=O)CC#N)C[C@@H]1N(C)c1ncnc2[nH]ccc12 [Tofacitinib]	-1.3	-1.3	0.3	-1.3	-3.7	5.4	6.4	0.8	-1	4.8	-0.3	-1.3	-1.3
Cc1cc(Nc2ncc(Cl)c(Nc3ccccc3S(=O)(=O)C(C)C)n2)c(OC(C)C)cc1C1CCNCC1 [Ceritinib]	7	4.9	-0.1	0.4	0.3	2.9	11.7	3.5	3.8	4.9	2.1	3.7	3.4
C[C@H](NC(=O)CCC(F)(F)F)C(=O)N[C@@H]1C(=O)N(CCO)c2ncccc2-c2ccccc21 [Crenigacestat]	0.3	-2.3	-0.6	-0.2	-2.3	5.8	13.6	5.8	-2.3	6.4	-2.3	1	-2.3
COc1cccc2c1C(=O)c1c(O)c3c(c(O)c1C2=O)C[C@@](O)(C(C)=O)C[C@@H]3O[C@H]1C[C@H](N)[C@H](O)[C@H](C)O1 [Daunorubicin]	13.2	4.9	2.7	2.8	0.8	9.1	21.7	-4.5	-5.2	3.2	12.6	12.9	12.2
Cc1nc(NC(=O)N2CCC[C@H]2C(N)=O)sc1-c1ccnc(C(C)(C)C(F)(F)F)c1 [Alpelisib]	4.9	2.9	-2	-3	0.2	-3.7	11	0.8	-1.9	11	2.5	0.9	1
Cc1cnc(Nc2ccc(OCCN3CCCC3)cc2)nc1Nc1cccc(S(=O)(=O)NC(C)(C)C)c1 [Fedratinib]	0.2	-0.1	-3.3	-1.7	-2.2	1.8	5.5	-3.2	-1.8	1.5	3.9	-0.1	-1.3
C[C@@H]1C[C@H]2[C@@H]3CCC4=CC(=O)C=C[C@]4(C)[C@@]3(F)[C@@H](O)C[C@]2(C)[C@@]1(O)C(=O)CO [Dexamethasone]	-0.5	-0.5	0.6	-0.5	-0.5	-0.5	-0.5	-0.5	-0.5	-0.5	-0.5	-0.5	-0.5
COc1cc(NS(C)(=O)=O)ccc1Nc1c2ccccc2nc2ccccc12 [Amsacrine]	3	-1.9	-4.1	1.6	-12.8	12.5	27.1	8.8	8.9	16.3	8.4	13.3	13.7
CC1(COc2ccc3c(c2)ncn3-c2ccc3cccc(N4CCC(N)CC4)c3n2)COC1 [Crenolanib]	1.4	2.5	-1.7	-2.3	-4.2	4	3.4	2.9	4	-0.6	2.8	1.2	-1.3
O=C(c1ccc(Nc2nccc(-c3cc4ccccc4s3)n2)cc1)N1CCC(N2CCCC2)CC1 [IKK16]	0	-0.1	0.3	-4	0.7	-2.5	2.3	-4.1	-0.6	0	0.4	0.1	-4.4
